The values below come from patent US8536332B2, “Modulating signal transduction pathways with substituted pyridol [2,3-b] pyrazines” (Aeterna Zentaris GmbH, priority 2007, dated 2013).

Where only a bound is given, the exact number is not on record here.

`CCNC(=O)Nc1ccc2ncc(-c3cc(F)ccc3OC)nc2n1` [Compound 93, 1-Ethyl-3-[3-(5-fluoro-2-methoxy-phenyl)-pyrido[2,3-b]pyrazin-6-yl]-urea]: the melting point lay in the range of 253 to 258 °C.

In turn, `CCNC(=O)Nc1ccc2ncc(-c3ccc(OP(=O)([O-])[O-])c(OC)c3)nc2n1.[Na+].[Na+]` had a melting point of over 350 °C.

In the case of `CCNC(=O)Nc1ccc2ncc(-c3cc(OC)ccc3OC)nc2n1` [Compound 145, 1-[3-(2,5-Dimethoxy-phenyl)-pyrido[2,3-b]pyrazin-6-yl]-3-ethyl-urea], the melting point fell in the range of 207 to 209 °C.

Regarding `COc1cc(-c2ccc3ncc(NC(=O)Nc4cccc(-n5cccc5)c4)nc3n2)ccc1O` [Compound 619, 1-[6-(4-Hydroxy-3-methoxy-phenyl)-pyrido[2,3-b]pyrazin-3-yl]-3-(3-pyrrol-1-yl-phenyl)-urea], the melting point is 214 to 217 °C.

In turn, `O=C(Nc1cnc2ccc(-c3cc(Cl)c(O)c(Cl)c3)nc2n1)NC1CCCCC1` [Compound 558, 1-Cyclohexyl-3-[6-(3,5-dichloro-4-hydroxy-phenyl)-pyrido[2,3-b]pyrazin-3-yl]-urea] gave a melting point of 272 to 275 °C.

`CCNC(=S)Nc1cnc2ccc(Cl)nc2n1` [Example 2, 1-(6-Chloro-pyrido[2,3-b]pyrazin-3-yl)-3-ethyl-thiourea]: the melting point amounted to 215 °C.

The molecule `Cc1noc(C)c1NC(=O)Nc1cnc2ccc(-c3cc(Cl)c(O)c(Cl)c3)nc2n1` [Compound 562, 1-[6-(3,5-Dichloro-4-hydroxy-phenyl)-pyrido[2,3-b]pyrazin-3-yl]-3-(3,5-dimethyl-isoxazol-4-yl)-urea] registered a melting point of 257 to 260 °C.

Take `CCNC(=O)Nc1ccc2ncc(-c3cc(Cl)c(OS(C)(=O)=O)c(OC)c3)nc2n1` [Compound 37, Methanesulfonic acid 2-chloro-4-[6-(3-ethyl-ureido)-pyrido[2,3-b]pyrazin-3-yl]-6-methoxy-phenyl ester]: the melting point was 247 to 249 °C.

`COc1cc(-c2ccc3ncc(NC(=O)NCc4ccccc4)nc3n2)ccc1O` [Compound 29, 1-Benzyl-3-[6-(4-hydroxy-3-methoxy-phenyl)-pyrido[2,3-b]pyrazin-3-yl]-urea] displayed a melting point of 229 to 231 °C.

Molecule `COc1cc(Nc2cnc3ccc(NC(=S)NC(C)(C)C)nc3n2)cc(OC)c1OC` [Compound 694, 1-tert-Butyl-3-[3-(3,4,5-trimethoxy-phenylamino)-pyrido[2,3-b]pyrazin-6-yl]-thiourea] displayed a melting point of 218 to 220 °C.

The molecule `CCNC(=O)Nc1cnc2ccc(-c3ccc(N)c(OC)c3)nc2n1` [Compound 2, 1-[6-(4-Amino-3-methoxy-phenyl)-pyrido[2,3-b]pyrazin-3-yl]-3-ethyl-urea] displayed a melting point of over 310 °C.

`CCNC(=S)Nc1ccc2ncc(-c3ccc(C)cc3)nc2n1` [Compound 124, 1-Ethyl-3-(3-p-tolyl-pyrido[2,3-b]pyrazin-6-yl)-thiourea]: the melting point was 246 °C.

Regarding `CCNC(=O)Nc1ccc2ncc(Nc3ccc4c(c3)OC(F)(F)O4)nc2n1` [Compound 42, 1-[3-(2,2-Difluoro-benzo[1,3]dioxol-5-ylamino)-pyrido[2,3-b]pyrazin-6-yl]-3-ethyl-urea], the melting point lay in the range of 238 to 241 °C.

In turn, `CCNC(=S)Nc1cnc2ccc(Nc3ccccc3O)nc2n1` [Compound 197, 1-Ethyl-3-[6-(2-hydroxy-phenylamino)-pyrido[2,3-b]pyrazin-3-yl]-thiourea] yielded a melting point of 211 °C.

On to `CN(C)c1ccc(NC(=O)Nc2cnc3ccc(-c4cc(Cl)c(O)c(Cl)c4)nc3n2)cc1` [Compound 555, 1-[6-(3,5-Dichloro-4-hydroxy-phenyl)-pyrido[2,3-b]pyrazin-3-yl]-3-(4-dimethylamino-phenyl)-urea], for which the melting point was 259 to 262 °C.

With `CNC(=O)Nc1cnc2ccc(-c3ccc(O)c(OC)c3)nc2n1` [Compound 172, 1-[6-(4-Hydroxy-3-methoxy-phenyl)-pyrido[2,3-b]pyrazin-3-yl]-3-methyl-urea], the melting point lay in the range of 242 to 244 °C.

For `CCCOc1ccc(-c2cnc3ccc(NC(=O)NCC)nc3n2)cc1` [Compound 133, 1-Ethyl-3-[3-(4-propoxy-phenyl)-pyrido[2,3-b]pyrazin-6-yl]-urea], the melting point was found to be 258.7 °C.

The molecule `CCNC(=O)Nc1ccc2ncc(Nc3cccc(Oc4ccccc4)c3)nc2n1` [Compound 155, 1-Ethyl-3-[3-(3-phenoxy-phenylamino)-pyrido[2,3-b]pyrazin-6-yl]-urea] showed a melting point of 230 °C.

`COc1ccc(-c2ccc3ncc(NC(=O)Nc4ccc(N5C(=O)C=CC5=O)cc4)nc3n2)cc1OC` [Compound 579, 1-[6-(3,4-Dimethoxy-phenyl)-pyrido[2,3-b]pyrazin-3-yl]-3-[4-(2,5-dioxo-2,5-dihydro-pyrrol-1-yl)-phenyl]-urea] returned a melting point of 279 to 283 °C.

`COc1ccc(-c2ccc3ncc(NC(=O)Nc4ccc(F)cc4)nc3n2)cc1OC` [Compound 572, 1-[6-(3,4-Dimethoxy-phenyl)-pyrido[2,3-b]pyrazin-3-yl]-3-(4-fluoro-phenyl)-urea]: the melting point was 269 to 271 °C.

Molecule `COc1cc(-c2ccc3ncc(NC(=O)NC4CCCCCCCCCCC4)nc3n2)ccc1O` [Compound 628, 1-Cyclododecyl-3-[6-(4-hydroxy-3-methoxy-phenyl)-pyrido[2,3-b]pyrazin-3-yl]-urea] displayed a melting point of 233 to 235 °C.

The molecule `Cc1cc(-c2ccc3ncc(NC(=O)Nc4c(C)noc4C)nc3n2)cc(C)c1O` [Compound 590, 1-(3,5-Dimethyl-isoxazol-4-yl)-3-[6-(4-hydroxy-3,5-dimethyl-phenyl)-pyrido[2,3-b]pyrazin-3-yl]-urea] showed a melting point of 242 to 244 °C.

The molecule `CCNC(=O)Nc1ccc2ncc(-c3cnn(CCN4CCOCC4)c3)nc2n1` [Compound 60, 1-Ethyl-3-{3-[1-(2-morpholin-4-yl-ethyl)-1H-pyrazol-4-yl]-pyrido[2,3-b]pyrazin-6-yl}-urea] registered a melting point of 223 to 226 °C.

With `CCNC(=O)Nc1ccc2ncc(Nc3cc(C(C)(C)C)ccc3O)nc2n1` [Compound 336, 1-[3-(5-tert-Butyl-2-hydroxy-phenylamino)-pyrido[2,3-b]pyrazin-6-yl]-3-ethyl-urea], the melting point worked out at 255 °C.

Consider `CCNC(=O)Nc1cnc2ccc(-c3cc(C)c(OC)c(C)c3)nc2n1` [Compound 586, 1-Ethyl-3-[6-(4-methoxy-3,5-dimethyl-phenyl)-pyrido[2,3-b]pyrazin-3-yl]-urea], for which the melting point is 240 to 241 °C.

On to `CCNC(=O)Nc1ccc2ncc(-c3cccc(SC)c3)nc2n1` [Compound 117, 1-Ethyl-3-[3-(3-methylsulfanyl-phenyl)-pyrido[2,3-b]pyrazin-6-yl]-urea], for which the melting point lay within 221 to 224 °C.

`CCNC(=O)Nc1cnc2ccc(-c3ccc(C(=O)O)c(O)c3)nc2n1` [Compound 644] returned a melting point of 225 °C.

For the molecule `CCNC(=S)Nc1cnc2ccc(Nc3ccc(Cl)cc3)nc2n1` [Compound 217, 1-[6-(4-Chloro-phenylamino)-pyrido[2,3-b]pyrazin-3-yl]-3-ethyl-thiourea], the melting point was found to be 185 °C.

`CCNC(=O)Nc1cnc2ccc(NCC3CC3)nc2n1` [Compound 231, 1-[6-(Cyclopropylmethyl-amino)-pyrido[2,3-b]pyrazin-3-yl]-3-ethyl-urea] gave a melting point of 201 to 203 °C.

In turn, `COc1cc(-c2ccc3ncc(NC(=O)NCCc4ccccc4)nc3n2)ccc1O` [Compound 26, 1-[6-(4-Hydroxy-3-methoxy-phenyl)-pyrido[2,3-b]pyrazin-3-yl]-3-phenethyl-urea] gave a melting point of 235 to 237 °C.

The molecule `CCNC(=S)Nc1cnc2ccc(Nc3ccc(C)c(NS(C)(=O)=O)c3)nc2n1` [Compound 207, N-{5-[3-(3-Ethyl-thioureido)-pyrido[2,3-b]pyrazin-6-ylamino]-2-methyl-phenyl}-methanesulfonamide] had a melting point of 236 °C.

The molecule `CCNC(=O)Nc1ccc2ncc(Nc3cccc(C)c3C)nc2n1` [Compound 378, 1-[3-(2,3-Dimethyl-phenylamino)-pyrido[2,3-b]pyrazin-6-yl]-3-ethyl-urea] had a melting point of 225 °C.

`CCNC(=O)Nc1ccc2ncc(-c3ccc(-c4ccccc4)cc3)nc2n1` [Compound 123, 1-(3-Biphenyl-4-yl-pyrido[2,3-b]pyrazin-6-yl)-3-ethyl-urea]: the melting point was 280 °C.

In the case of `CCNC(=S)Nc1ccc2ncc(Nc3ccc(OC)c(Cl)c3)nc2n1` [Compound 159, 1-[3-(3-Chloro-4-methoxy-phenylamino)-pyrido[2,3-b]pyrazin-6-yl]-3-ethyl-thiourea], the melting point amounted to 276 °C.

Molecule `CCNC(=O)Nc1ccc2ncc(-c3cccc(C#N)c3)nc2n1` [Compound 114, 1-[3-(3-Cyano-phenyl)-pyrido[2,3-b]pyrazin-6-yl]-3-ethyl-urea] showed a melting point of 253 to 257 °C.

`COc1cc(Nc2cnc3ccc(NC(=S)NC4CCCCC4)nc3n2)cc(OC)c1OC` [Compound 690, 1-Cyclohexyl-3-[3-(3,4,5-trimethoxy-phenylamino)-pyrido[2,3-b]pyrazin-6-yl]-thiourea] registered a melting point of 248 °C.

As for `CCNC(=S)Nc1ccc2ncc(Nc3cc(OC)cc(OC)c3)nc2n1` [Compound 157, 1-[3-(3,5-Dimethoxy-phenylamino)-pyrido[2,3-b]pyrazin-6-yl]-3-ethyl-thiourea], the melting point was 265 °C.

`CCNC(=O)Nc1cnc2ccc(-c3ccc(OC)c(OC)c3)nc2n1` [Compound 22, 1-[6-(3,4-Dimethoxy-phenyl)-pyrido[2,3-b]pyrazin-3-yl]-3-ethyl-urea] had a melting point of over 235 °C.

As for `CCNC(=O)Nc1ccc2ncc(-c3ccc(N)c([N+](=O)[O-])c3)nc2n1` [Compound 78, 1-[3-(4-Amino-3-nitro-phenyl)-pyrido[2,3-b]pyrazin-6-yl]-3-ethyl-urea], the melting point was over 350 °C.

For the molecule `CCNC(=O)Nc1cnc2ccc(Nc3cccc(CC(=O)O)c3)nc2n1` [Compound 194, {3-[3-(3-Ethyl-ureido)-pyrido[2,3-b]pyrazin-6-ylamino]-phenyl}-acetic acid], the melting point is 305 to 308 °C.

Take `CCNC(=O)Nc1cnc2ccc(Nc3cnc4ccccc4c3)nc2n1` [Compound 32, 1-Ethyl-3-[6-(quinolin-3-ylamino)-pyrido[2,3-b]pyrazin-3-yl]-urea]: the melting point was in the range of 265 to 270 °C.

The term melting point denotes the temperature, or range, at which the solid turns liquid.
